Results on 3 compounds are retold here after US20090258836A1, “EFFECTIVE DELIVERY OF CROSS-SPECIES A3 ADENOSINE-RECEPTOR ANTAGONISTS TO REDUCE INTRAOCULAR PRESSURE” (The Trustees of The University of Pennsylvania, priority 2006, published 2009).

Entries after “also recorded” stand apart in the source; their conditions may differ.

The test system of data set [1] is mouse IOP. Nature of the data set: Mouse IOP after topical application, invasive servo-null micropipette system (SNMS). Format: in vivo, Black Swiss mice. Here is the method: (§1) The test animals were black Swiss outbred mice of mixed sex, 7-9 weeks old and 25-30 g in weight, obtained from Taconic Inc. (Germantown, N.Y.), and maintained under 12:12-h light/dark illumination cycle and allowed unrestricted access to food and water. Mice were anesthetized with intraperitoneal ketamine ([…]) supplemented by topical proparacaine HCl 0.5% (Allergan, Bausch & Lomb) for the IOP measurements. IOP was measured invasively (SNMS) and non-invasively by pneumotonometry in separate animals.
By the SNMS approach (Avila et al., supra, 2001), the exploring micropipette, of […] outer diameter, was filled with a highly conducting solution and advanced across the cornea into the anterior chamber. A refined technique by Wang et al., Invest. Opthalmol. Vis. Sci. (serial online) (Aug. 31, 2006) available at www.iovs.org/egi/letters/46/9/3274#422, enhanced stability and reduce the background noise of the records, permitting fabrication of micropipettes whose resistance is 0.1-0.3 MΩ, rather than the 0.25-0.4 MΩ used initially. The filling solution was reduced from 3M KCl to 2M NaCl, rather than 3 M KCl. The resistance of the filled micropipette was balanced in a bridge circuit, and the tip was then advanced across the cornea. Upon entering the anterior chamber of the eye, the IOP forces the much lower-conducting aqueous humor into the micropipette tip, displacing the original filling solution. The micropipette resistance was thereby increased, unbalancing the bridge circuit and triggering a bellows to provide a counter-pressure, restoring the position of the filling solution and returning the resistance to its initial value. Thus, the value of the counter-pressure equals the IOP. As in the past (Avila et al., supra, 2001), the stability of the records permitted continuous measurements for tens of minutes during the course of drug applications.
(§2) Ketamine HCl was purchased from Phoenix Pharmaceutical Inc. (St. Joseph, Mo.). Other drugs were obtained from Sigma Chemical (St. Louis, Mo.). Drugs were applied topically with an Eppendorf pipette. […] The final droplet solution contained the drugs at the stated concentrations together with <2% DMSO and 0.0005% benzalkonium chloride at an osmolality of 295-300 mOsm. DMSO was omitted, altogether, from droplets containing the hydrophilic compounds adenosine, carbachol and carboxyfluorescein.
(§3) Effects on invasively-measured IOP were measured 10 min after topical application because after this time, the continued presence of the micropipette can be associated with a downward drift of the IOP, even under control conditions. In contrast, smaller droplets ([…]) were applied to the eye more frequently (three times instead of once) with the non-invasive technique, in order to forestall drying of the eye associated with the airflow from the pneumotonometer. With the non-invasive protocol, the IOP was stable for 30 min under control conditions.
In Table 1, an endpoint of 10 minutes was used for the invasive measurements in light of the above-discussed downward drift of the IOP, even under control conditions. Also the need for smaller, more frequent droplets are discussed above with regard to the non-invasive technique using the pneumotonometer. As above, with the non-invasive protocol, the IOP was stable for 30 minutes under control conditions.

Data set [2] relates to mouse IOP. Nature of the data set: Mouse IOP after topical application, non-invasive pneumotonometry. Type of data set: in vivo, Black Swiss mice. As to the method:
as §1
By comparison, IOP was measured non-invasively by pneumotonometry (OBT) (Avila et al., supra, 2005). As previously described, the commercially available tip of the ocular blood tomography (OBT) pneumotonometer (Blood Flow Analyzer [BFA] probe tip; Paradigm Medical Industries Inc.) was fit to a custom-built mount. Air flow from a constant pressure source was passed through the mount to reach a diaphragm forming the end of the BFA tip. The flow of air displaces the diaphragm outward, permitting escape of the air through holes in the wall of the probe tip into the atmosphere. Pressure was monitored with a transducer connected through a T-connection to the base of the BFA tip. The probe assembly was advanced to the cornea with a three-axis micromanipulator. The probe tip was advanced sufficiently to make contact with the tear film, as was indicated by a shift in the baseline output reading. In a refined method, the tip was withdrawn until the […] was visually displaced from the tear film. The output was then adjusted to zero before advancing the tip again. Contact with the cornea depresses the diaphragm of the BFA tip, occluding access of the air flow to the escape holes and raising the pressure at the base of the tip.
This approach was simplified to expedite identification of the endpoint, and the probe was subsequently advanced in about 10 standardized steps of approximately […] at intervals of about 10 seconds to identify the inflection region (Wang et al., supra, 2006). […] The pneumotonometric estimates of IOP were previously found to agree with manometric measurements in cannulated preparations and with estimates obtained by the servo-null technique (Avila et al., supra, 2005). Having established the baseline value of IOP, the position along the axis of advance of the micromanipulator was noted, and the probe was retracted from contact with the cornea. Subsequent measurements of IOP at later time points were obtained by advancing the probe tip to the same position, with the placement of the mouse maintained stereotactically. The measurements were conducted at 10-min intervals to avoid potential artifacts associated with prolonged pressure on the cornea.
as §2, §3
In Table 1, an endpoint of 10 minutes was used for the invasive measurements in light of the above-discussed downward drift of the IOP, even under control conditions. […]

The test system of data set [3] is cultured human NPE cells. To be noted: cited from earlier work.
In data set [4] the test system is HCE (human ciliary epithelial) cell line, NPE cells. Particulars: Civan et al.; read-out: EC50 of isosmotic shrinkage of cultured human NPE cells; cited from earlier work.
The target of data set [5] is human A2A receptors (Homo sapiens, UniProt P29274). To be noted: literature; read-out: Ki for the binding to human A2A receptors; cited from earlier work.
In data set [6] the test system is HCE (human ciliary epithelial) cell line, NPE cells. Description: Cell volume in isosmotic solution (isosmotic shrinkage), Coulter Counter. Type of data set: cell-based. Particulars: 10 μM adenosine; 2 min preincubation with 300 nM MRS-1097, 100 nM MRS-1191 or 100 nM MRS-1523. As to the method: Cell Culture The HCE (human ciliary epithelial) cell line (Carre et al., supra, 1997) is an immortalized NPE cell line obtained from primary cultures of adult human epithelium. […] Eye Res. 57:3057-3063 (1993); Yantorno et al., Exp. Eye Res. 49:423-437 (1989)). […] Cells were passaged every 6-7 days and were studied 8-13 days after passage, after reaching confluence. An immortalized PE-cell line from a primary culture of bovine pigmented ciliary epithelium were also grown under matching conditions. Measurement of Cell Volume in Isosmotic Solution: The volume of PE and NPE cells was measured, since the movement of fluid underlies a change in PE and NPE cell volume, respectively. This is also thought to be the same as the movement of fluid which underlines the secretion of aqueous humor (FIG. 1). […] Parallel aliquots of cells were studied on the same day. One aliquot usually served as a control, and the others were exposed to different experimental conditions at the time of suspension. The same amount of solvent vehicle (dimethylformamide, DMSO or ethanol) was always added to the control and experimental aliquots. […] Cell volumes of isosmotic suspensions were measured with a Coulter Counter (model ZBI-Channelyzer II), using a 100 μm aperture (Civan et al., supra, 1994). As previously described (Wax et al., supra, 1993), the cell volume (vC) of the suspension was taken as the peak of the distribution function. Cell shrinkage was fit as a function of time (t) to a monoexpenential function: […]^0^)/τ] {1) where v∞ is the steady-state cell volume, v0 is the cell volume at the first point (t0) of the time course to be fit, and τ is the time constant of the shrinkage. For purposes of data reduction, the data were normalized to the first time point, taken to be 100% isotonic volume. Fits were obtained by nonlinear least-squares regression analysis, permitting both v∞ and τ to be variables. […] Med. Chem. 37:636-646 (1994; Jacobson et al., supra, 1995; Jacobson et al., FEBS Lett. 336:57-60 (1993)).

Data set [7] concerns the target T1, human A3 receptors (Homo sapiens, UniProt P0DMS8).
T1 sequence (P0DMS8 1-318): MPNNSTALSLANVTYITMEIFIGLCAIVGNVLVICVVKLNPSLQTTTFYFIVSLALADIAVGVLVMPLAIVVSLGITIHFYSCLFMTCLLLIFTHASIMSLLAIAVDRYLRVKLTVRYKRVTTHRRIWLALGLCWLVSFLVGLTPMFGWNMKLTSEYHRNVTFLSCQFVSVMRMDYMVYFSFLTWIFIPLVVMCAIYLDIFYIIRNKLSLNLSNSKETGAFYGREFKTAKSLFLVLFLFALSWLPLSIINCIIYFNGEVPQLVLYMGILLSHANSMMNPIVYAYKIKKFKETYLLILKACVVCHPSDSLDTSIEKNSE
Particulars: literature; read-out: Ki for the binding to human A3 receptors; cited from earlier work.

For data set [8], the target named is T2, human A1 receptors (Homo sapiens, UniProt P30542).
T2 sequence (P30542 1-326): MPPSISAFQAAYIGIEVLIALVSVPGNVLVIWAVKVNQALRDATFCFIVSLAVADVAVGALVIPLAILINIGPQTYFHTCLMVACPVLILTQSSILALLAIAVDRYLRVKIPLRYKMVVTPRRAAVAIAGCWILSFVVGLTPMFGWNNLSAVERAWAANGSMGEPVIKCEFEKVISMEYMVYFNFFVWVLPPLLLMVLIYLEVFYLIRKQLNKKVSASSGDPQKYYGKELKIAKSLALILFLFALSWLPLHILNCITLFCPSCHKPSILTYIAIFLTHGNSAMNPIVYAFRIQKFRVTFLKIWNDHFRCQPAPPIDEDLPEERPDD
Particulars: literature; read-out: Ki for the binding to human A1 receptors; cited from earlier work.

A short description of data set [9]: Dye penetration into the anterior chamber with or without corneal impalement. Format: in vivo, mouse. Particulars: 0.003% droplet, 5 min, impaled eyes. As to the method: Whether drug penetration into the eye was influenced by corneal impalement by a micropipette was further tested by topically applying a […] containing 0.003% carboxyfluorescein ([…]) to both eyes of two mice. Carboxyfluorescein is a highly polar molecule that crosses the barrier layers of the eye poorly. In each mouse, an exploring micropipette was first advanced into the aqueous humor of one eye while the companion eye was not impaled. After 5 min, the dye was washed out with isotonic saline.

Chain of human A2A receptors (P29274 whole entry): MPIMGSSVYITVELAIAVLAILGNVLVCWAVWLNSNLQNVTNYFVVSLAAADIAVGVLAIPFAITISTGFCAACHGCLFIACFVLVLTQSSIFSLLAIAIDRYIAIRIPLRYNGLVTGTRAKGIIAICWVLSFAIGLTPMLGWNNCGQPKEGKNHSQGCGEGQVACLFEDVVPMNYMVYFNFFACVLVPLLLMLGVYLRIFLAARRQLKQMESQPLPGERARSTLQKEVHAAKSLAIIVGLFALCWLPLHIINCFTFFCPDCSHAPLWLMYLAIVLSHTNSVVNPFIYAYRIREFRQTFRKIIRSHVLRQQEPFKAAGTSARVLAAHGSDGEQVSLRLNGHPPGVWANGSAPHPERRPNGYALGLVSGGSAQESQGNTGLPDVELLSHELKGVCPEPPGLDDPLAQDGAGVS

As to `Nc1ncnc2c1ncn2[C@@H]1O[C@H](CO)[C@@H](O)[C@H]1O` [Adenosine, adenosine], in data set [1] (SNMS, after 10 min, adenosine 10 mM, Cl-IB-MECA 200 nM droplet), the “increase in IOP over baseline” value was 24.0±4.7 mmHg. Also, the “Δ(IOP) Servo-Null” value in data set [1] (topical droplet 10 mM, endpoint 10 min) is “+22.4 ± 6.5 mm Hg”. For the same compound, in data set [2] (topical), the “delay of the increase in IOP when measured non-invasively” value is given as “about 10 minutes”. Also, the “Δ(IOP) Pneumotonometer” value in [2] (topical droplets 10 mM, 30 min) was “+4.8 ± 1.7 mm Hg”. The “time constant (τ) of the adenosine-triggered shrinkage” value in data set [3] (10 μM adenosine without antagonist) is 3.8 ± 0.6 min. Also, the “degree of shrinkage relative to control” value in data set [3] (10 μM) is “increased the degree of shrinkage several-fold”. In data set [4], the EC50 (usually the concentration at which the effect is half-maximal) was 3 to 10 µM.
Consider `CCCOC(=O)c1c(-c2ccccc2)nc(CC)c(C(=O)SCC)c1CCC` [MRS-1523], for which the results for the Ki in [5], in [7] and in [8] were 2.05 µM, 0.019 µM and 15.6 µM, respectively. Besides, in [6], the “effect of A3 antagonist on adenosine-stimulated isotonic shrinkage of NPE cells” value is “prevented the characteristic shrinkage; also recorded: blocked the shrinkage; also recorded: eliminated the actions of adenosine”. For the same compound, the “effect on IOP in the mouse (in words)” value in data set [1] (tested by the inventors, technique not given) is “found to lower IOP in the mouse”.
Turning to carboxyfluorescein, the “fluorescence in the anterior chamber” value in data set [9] is reported as “Green fluorescence was observed in the anterior chamber of the impaled mouse eyes”.
